Data from ChEMBL document CHEMBL4303773 (Nature, 2020).
Calls of active or inactive are those of the source. No cut-off for these calls is given here.

Assays:
Vero C1008 [1] = assay: AUC (cytotoxicity %) of compound against Vero E6 cells by MTT assay.; format: toxicity, cell-based; conditions: chlorocebus sabaeus
in vitro = conditions: monkey, Vero E6 cells
Vero C1008 [2] = assay: (§1) Cytotoxicity of compound against Vero E6 cells by MTT assay.; conditions: chlorocebus sabaeus, vero c1008
SARS-CoV-2 [3] = assay: IC90 for antiviral activity against SARS-CoV-2 in the Vero E6 cell line by measuring infectious viral titer of supernatent from compound-treated Vero E6 cells by Median Tissue Culture Infectious Dose (TCID)50 by the method of Reed and Muench; format: functional, Chlorocebus sabaeus; conditions: Severe acute respiratory syndrome coronavirus 2, Vero C1008
[4] = target: T1, Muscarinic acetylcholine receptor M4 (Homo sapiens, UniProt P08173); assay: Activity of compound against Muscarinic acetylcholine receptor M4 (CHRM4) by displacement of 3H-QNB
T1 sequence (P08173 whole entry): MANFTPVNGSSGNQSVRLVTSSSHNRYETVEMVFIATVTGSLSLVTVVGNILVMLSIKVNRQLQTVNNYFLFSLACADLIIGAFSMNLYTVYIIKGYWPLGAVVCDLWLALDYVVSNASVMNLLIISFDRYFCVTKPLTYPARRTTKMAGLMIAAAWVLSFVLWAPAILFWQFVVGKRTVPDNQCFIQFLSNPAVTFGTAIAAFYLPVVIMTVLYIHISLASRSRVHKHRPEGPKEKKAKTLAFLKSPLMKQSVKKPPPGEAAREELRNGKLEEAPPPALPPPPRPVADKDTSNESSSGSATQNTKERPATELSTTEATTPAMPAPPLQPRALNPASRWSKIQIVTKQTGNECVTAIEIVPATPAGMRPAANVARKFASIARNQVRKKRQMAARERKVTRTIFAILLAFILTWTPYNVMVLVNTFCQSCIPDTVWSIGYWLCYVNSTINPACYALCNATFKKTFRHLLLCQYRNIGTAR

SARS-CoV-2 [5] = conditions: Chlorocebus sabaeus; Vero C1008
[6] = target: T2, Muscarinic acetylcholine receptor M5 (Homo sapiens, UniProt P08912); assay: Activity of compound against Muscarinic acetylcholine receptor M5 (CHRM5) by displacement of 3H-QNB
T2 sequence (P08912 whole entry): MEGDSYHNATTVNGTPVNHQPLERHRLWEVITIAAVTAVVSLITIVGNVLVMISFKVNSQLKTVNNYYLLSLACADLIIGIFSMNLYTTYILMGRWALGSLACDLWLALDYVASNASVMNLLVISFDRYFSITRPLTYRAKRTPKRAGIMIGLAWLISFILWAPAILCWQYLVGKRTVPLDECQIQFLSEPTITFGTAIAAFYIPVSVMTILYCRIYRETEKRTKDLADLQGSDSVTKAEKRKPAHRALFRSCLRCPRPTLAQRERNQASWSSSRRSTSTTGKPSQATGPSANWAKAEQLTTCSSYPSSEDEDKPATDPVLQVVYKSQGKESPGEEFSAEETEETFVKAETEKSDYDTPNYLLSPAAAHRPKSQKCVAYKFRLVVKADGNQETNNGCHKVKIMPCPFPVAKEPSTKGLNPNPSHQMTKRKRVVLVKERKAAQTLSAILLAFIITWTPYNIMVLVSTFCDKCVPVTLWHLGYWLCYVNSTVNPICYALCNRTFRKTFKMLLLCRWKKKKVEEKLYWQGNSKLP

[7] = target: T3, Muscarinic acetylcholine receptor M2 (Homo sapiens, UniProt P08172); assay: Activity of compound against Muscarinic acetylcholine receptor M2 (CHRM2) by displacement of 3H-QNB
T3 sequence (P08172 whole entry): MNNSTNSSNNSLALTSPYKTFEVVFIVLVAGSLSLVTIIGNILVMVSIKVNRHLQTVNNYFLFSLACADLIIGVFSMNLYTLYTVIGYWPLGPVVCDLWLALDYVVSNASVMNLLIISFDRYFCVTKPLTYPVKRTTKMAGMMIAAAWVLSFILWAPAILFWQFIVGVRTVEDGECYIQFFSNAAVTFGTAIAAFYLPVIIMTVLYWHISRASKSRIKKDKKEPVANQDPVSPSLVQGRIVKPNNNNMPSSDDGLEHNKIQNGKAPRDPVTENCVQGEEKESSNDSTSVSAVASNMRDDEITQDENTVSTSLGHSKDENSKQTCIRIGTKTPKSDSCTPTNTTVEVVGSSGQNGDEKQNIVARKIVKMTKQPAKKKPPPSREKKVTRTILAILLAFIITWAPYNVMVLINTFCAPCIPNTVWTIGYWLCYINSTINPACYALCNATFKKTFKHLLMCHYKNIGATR

[8] = target: Sigma intracellular receptor 2 (Homo sapiens, UniProt Q5BJF2); assay: Displacement of [3H]-DTG from the Sigma2 receptor
Sequence of Sigma intracellular receptor 2 (Q5BJF2 whole entry): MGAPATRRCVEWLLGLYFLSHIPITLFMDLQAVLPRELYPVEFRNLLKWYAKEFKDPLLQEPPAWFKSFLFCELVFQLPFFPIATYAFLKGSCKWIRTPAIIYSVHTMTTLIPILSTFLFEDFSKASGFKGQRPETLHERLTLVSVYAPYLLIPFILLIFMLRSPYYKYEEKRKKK

[9] = target: Voltage-gated inwardly rectifying potassium channel KCNH2 (Homo sapiens, UniProt Q12809)
Sequence of Voltage-gated inwardly rectifying potassium channel KCNH2 (Q12809 whole entry): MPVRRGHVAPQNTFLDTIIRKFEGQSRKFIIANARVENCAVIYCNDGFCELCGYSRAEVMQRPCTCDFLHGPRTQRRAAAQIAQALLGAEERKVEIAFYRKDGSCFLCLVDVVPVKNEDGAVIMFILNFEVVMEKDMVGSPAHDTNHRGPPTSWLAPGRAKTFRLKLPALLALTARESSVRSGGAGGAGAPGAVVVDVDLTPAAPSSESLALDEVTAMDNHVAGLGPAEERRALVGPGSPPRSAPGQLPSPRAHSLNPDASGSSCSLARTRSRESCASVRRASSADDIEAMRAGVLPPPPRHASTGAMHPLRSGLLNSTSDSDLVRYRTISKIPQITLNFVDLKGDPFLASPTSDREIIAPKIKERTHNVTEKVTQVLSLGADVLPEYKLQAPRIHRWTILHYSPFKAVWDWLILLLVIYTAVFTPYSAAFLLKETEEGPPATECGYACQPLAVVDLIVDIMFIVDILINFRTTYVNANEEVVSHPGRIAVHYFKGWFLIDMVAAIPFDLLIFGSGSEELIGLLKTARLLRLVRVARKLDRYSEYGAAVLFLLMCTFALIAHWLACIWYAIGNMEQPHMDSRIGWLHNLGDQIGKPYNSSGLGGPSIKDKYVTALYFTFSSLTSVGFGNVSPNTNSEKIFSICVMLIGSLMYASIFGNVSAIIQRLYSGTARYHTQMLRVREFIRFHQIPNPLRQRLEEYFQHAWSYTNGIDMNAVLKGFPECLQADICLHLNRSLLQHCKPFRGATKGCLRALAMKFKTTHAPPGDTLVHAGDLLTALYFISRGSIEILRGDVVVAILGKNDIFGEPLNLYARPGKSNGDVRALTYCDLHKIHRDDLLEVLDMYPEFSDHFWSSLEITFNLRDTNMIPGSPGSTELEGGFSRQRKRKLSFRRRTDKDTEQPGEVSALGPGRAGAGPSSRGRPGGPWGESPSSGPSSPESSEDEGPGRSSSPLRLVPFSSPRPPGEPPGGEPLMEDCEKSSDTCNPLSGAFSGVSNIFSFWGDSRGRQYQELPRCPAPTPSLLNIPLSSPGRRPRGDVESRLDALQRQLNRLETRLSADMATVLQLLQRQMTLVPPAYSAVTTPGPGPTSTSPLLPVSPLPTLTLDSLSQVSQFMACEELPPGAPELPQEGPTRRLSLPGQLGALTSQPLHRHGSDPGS
Description: hERG binding assays: Displacement of [3H]-Dofetilide (5 nM final) from hERG membranes obtained from HEK293 cells

[10] = target: Sigma non-opioid intracellular receptor 1 (Homo sapiens, UniProt Q99720)
Sequence of Sigma non-opioid intracellular receptor 1 (Q99720 whole entry): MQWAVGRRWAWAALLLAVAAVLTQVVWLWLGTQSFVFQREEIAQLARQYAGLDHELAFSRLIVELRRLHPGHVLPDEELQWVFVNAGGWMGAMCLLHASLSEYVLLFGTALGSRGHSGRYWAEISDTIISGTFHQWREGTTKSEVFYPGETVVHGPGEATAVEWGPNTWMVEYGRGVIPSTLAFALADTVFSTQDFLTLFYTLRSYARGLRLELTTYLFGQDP
Description: Displacement of [3H]-pentazocin from the Sigma1 receptor

[11] = target: T4, Alpha-2A adrenergic receptor (Homo sapiens, UniProt P08913); assay: Activity of compound against Alpha-2A (ADRA2A) adrenergic receptor by displacement of [3H]-rauwolscine
T4 sequence (P08913 whole entry): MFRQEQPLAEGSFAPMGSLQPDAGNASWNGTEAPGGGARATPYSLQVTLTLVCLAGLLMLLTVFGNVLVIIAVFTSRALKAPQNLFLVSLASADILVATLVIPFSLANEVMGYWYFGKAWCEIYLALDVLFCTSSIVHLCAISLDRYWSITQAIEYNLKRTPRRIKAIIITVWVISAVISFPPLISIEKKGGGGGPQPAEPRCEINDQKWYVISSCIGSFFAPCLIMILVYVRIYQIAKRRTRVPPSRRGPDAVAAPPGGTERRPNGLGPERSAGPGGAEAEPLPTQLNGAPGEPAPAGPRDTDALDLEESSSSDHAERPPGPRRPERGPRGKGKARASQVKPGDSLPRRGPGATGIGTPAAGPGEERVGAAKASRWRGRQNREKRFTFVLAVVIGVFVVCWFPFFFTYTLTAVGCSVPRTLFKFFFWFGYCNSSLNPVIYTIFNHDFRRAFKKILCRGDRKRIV

[12] = as §1; conditions: chlorocebus sabaeus, Vero E6 cells
SARS-CoV-2 [13] = conditions: Chlorocebus sabaeus; Vero C1008; remark: listed apart in the source

N=C(N)c1ccc2cc(OC(=O)c3ccc(N=C(N)N)cc3)ccc2c1 [NAFAMOSTAT]
AUC cytotoxicity (Vero C1008 [1]): 279.9
selectivity ratio (in vitro): 0.926 (inactive)
pCC50 (Vero C1008 [2]): ~ 2.44

CCN(CCO)CCCC(C)Nc1ccnc2cc(Cl)ccc12 (stereo not drawn) [HYDROXYCHLOROQUINE]
IC90 (SARS-CoV-2 [3]): 5.78 µM
Ki [4]: 5.5 µM
AUC (SARS-CoV-2 [5]): 140
Ki [6]: 20 µM
Ki [7]: 5.13 µM
Ki [8]: 1 µM
AUC cytotoxicity (Vero C1008 [1]): 234.6
Ki [9]: 2.51 µM
Ki [10]: 0.126 µM
Ki [11]: 6.46 µM

CN(C)C(=N)N=C(N)N [METFORMIN]
AUC cytotoxicity (Vero C1008 [1]): 305.4
selectivity ratio (in vitro): 1.04
CC50 [12]: ~33.6 µM

CCOC(=O)N1CCC(=C2c3ccc(Cl)cc3CCc3cccnc32)CC1 [LORATADINE]
pCC50 (Vero C1008 [2]): Linear Fit
pIC50 (SARS-CoV-2 [13]): Linear Fit; INACTIVE
